Test systems include HOP-62 NSCLC; SR leukemia; SF-295 CNS; COLO 205 colon; UO-31 renal; TK-10 renal; ACHN renal; LOX IMVI melanoma; OVCAR-5 ovarian; SK-MEL-2 melanoma.
Common to all, as to test: NCI-60 cell line screen, 48 h

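Cells were grown in 96-well plates and exposed to each compound for 48 hours at five concentrations; endpoints were interpolated linearly between bracketing concentrations, or set to the highest concentration if not reached. GI50 is the concentration that inhibits growth by half. TGI: concentration producing complete growth inhibition.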

With `COc1ccc(-c2nn(-c3ccc(NC(=O)c4ccc(Cl)c(Cl)c4)cc3)cc2-c2ccncc2)cc1Cl`, the GI50 with HOP-62 NSCLC is 1.62 µM; in the assay on SR leukemia, 2290 nM; in the assay on SF-295 CNS, 979 nM; in the assay with COLO 205 colon, 1450 nM; in the assay with UO-31 renal, 2070 nM; in the assay on TK-10 renal it was more than 11.1 µM. Further, the GI50 in the assay on ACHN renal was more than 13.2 µM; in the assay on LOX IMVI melanoma, 951 nM; with OVCAR-5 ovarian it was 3.24 µM. For the same compound, the TGI is 17 µM in the assay with HOP-62 NSCLC; more than 50 µM in the assay with SR leukemia; 2.67 µM in the assay with SF-295 CNS; 3.8 µM in the assay with COLO 205 colon; more than 50 µM with UO-31 renal; more than 50 µM in the assay with TK-10 renal. The figures for the TGI in the assay on ACHN renal, in the assay with LOX IMVI melanoma and with OVCAR-5 ovarian were more than 50 µM, 2.17 µM and more than 50 µM, respectively.
In the case of `COc1ccc2[nH]cc(C3(c4c[nH]c5ccc(OC)cc45)C(=O)Nc4ccc(F)cc43)c2c1`, the GI50 is 2340 nM with SK-MEL-2 melanoma; 3.09 µM with HOP-62 NSCLC; 2030 nM with SR leukemia; 1790 nM with SF-295 CNS; 1690 nM with COLO 205 colon; 1510 nM in the assay on UO-31 renal. Further, the figures for the GI50 in the assay on ACHN renal, in the assay with LOX IMVI melanoma and in the assay on OVCAR-5 ovarian were 2.93 µM, 1650 nM and 2.61 µM, respectively. In addition, the TGI in the assay on SK-MEL-2 melanoma is 5.02 µM; in the assay with HOP-62 NSCLC, 13 µM; in the assay with SR leukemia, 4.97 µM; with SF-295 CNS it was 4.85 µM; in the assay on COLO 205 colon, 3.05 µM; in the assay on UO-31 renal it was 11.9 µM. The TGI with ACHN renal came out at 10.1 µM; with LOX IMVI melanoma, 3.26 µM; with OVCAR-5 ovarian, 8.93 µM.
Consider `COC(=O)C(Cc1nc2ccc(Cl)cc2[nH]c1=O)/C(=N\N)C(=O)Nc1cc(C)c(Cl)cc1S(=O)(=O)O` (stereo unspecified), for which the TGI with SK-MEL-2 melanoma, in the assay with HOP-62 NSCLC, in the assay on SR leukemia, with SF-295 CNS, with COLO 205 colon and in the assay on UO-31 renal was more than 100 µM in each case. For the same compound, the TGI with ACHN renal, in the assay with LOX IMVI melanoma and in the assay on OVCAR-5 ovarian was more than 100 µM in each case.
With `Cc1nn(-c2ccc(Cl)cc2)c2nc3c(nc12)C(=O)c1ccccc1-3`, the GI50 was more than 100000 nM in the assay with SK-MEL-2 melanoma; 13.7 µM in the assay with HOP-62 NSCLC; more than 100000 nM in the assay on SR leukemia; more than 100000 nM with SF-295 CNS; more than 100000 nM in the assay with COLO 205 colon; more than 100000 nM with UO-31 renal. Also, the GI50 in the assay with ACHN renal was more than 100 µM; in the assay with LOX IMVI melanoma, more than 100000 nM; with OVCAR-5 ovarian, more than 100 µM. In addition, the TGI in the assay on SK-MEL-2 melanoma, with HOP-62 NSCLC, with SR leukemia, in the assay on SF-295 CNS, with COLO 205 colon and in the assay on UO-31 renal was more than 100 µM each time. Besides, the TGI with ACHN renal, in the assay on LOX IMVI melanoma and in the assay on OVCAR-5 ovarian was more than 100 µM throughout.
Turning to `CCC(C)COC(=O)c1ccc(N=Cc2ccc(C=Nc3ccc(C(=O)OCC(C)CC)cc3)cc2)cc1` (stereo unspecified), the TGI in the assay with SK-MEL-2 melanoma, with HOP-62 NSCLC, in the assay with SR leukemia, in the assay with SF-295 CNS, in the assay with COLO 205 colon and in the assay on UO-31 renal was more than 100 µM in each case. Moreover, the TGI in the assay with ACHN renal, in the assay on LOX IMVI melanoma and with OVCAR-5 ovarian was more than 100 µM in each case.
As to `CCOC(=O)Nc1ccc(-c2nc(-c3cccc(OCCN4CCOCC4)c3)c(-c3ccnc(Br)c3)[nH]2)cc1`, the GI50 with SK-MEL-2 melanoma is 2410 nM; with HOP-62 NSCLC, 3.1 µM; in the assay on SR leukemia it was 2740 nM; in the assay with UO-31 renal, 2720 nM; in the assay with TK-10 renal, 4.26 µM; in the assay on ACHN renal, 3.06 µM. Also, the GI50 in the assay on OVCAR-5 ovarian is 5.11 µM. The TGI in the assay with SK-MEL-2 melanoma is 6.07 µM; in the assay with HOP-62 NSCLC, more than 100 µM; in the assay with SR leukemia, more than 100 µM; with UO-31 renal it was more than 100 µM; in the assay with TK-10 renal it was more than 100 µM; in the assay on ACHN renal, more than 100 µM. In the assay on OVCAR-5 ovarian, the TGI was more than 100 µM.
`COC1(OC)C(N(C)C)=C(Cl)C(=O)/C1=C/C=O`: the TGI in the assay on HOP-62 NSCLC, in the assay on SR leukemia, with SF-295 CNS, in the assay with COLO 205 colon, in the assay with UO-31 renal and with TK-10 renal was more than 100 µM in each case. The TGI in the assay with ACHN renal, in the assay with LOX IMVI melanoma and in the assay with OVCAR-5 ovarian was more than 100 µM each time.
For the compound `CC1CN(C(=O)CN2CCC(CCCCN(C)C)CC2)c2ccccc2NC1=O` (stereo unspecified), the TGI with HOP-62 NSCLC, in the assay with SR leukemia, in the assay on SF-295 CNS, in the assay with COLO 205 colon, in the assay on UO-31 renal and with ACHN renal was more than 100 µM throughout. In addition, the TGI in the assay with LOX IMVI melanoma and in the assay on OVCAR-5 ovarian was more than 100 µM in each case.
Regarding `CCCC(=O)Nc1cc2c3c(c1)CCCN3CCC2`, the TGI in the assay with HOP-62 NSCLC, with SR leukemia, in the assay with SF-295 CNS, in the assay with COLO 205 colon, with TK-10 renal and with ACHN renal was more than 10 µM each time. Further, the TGI with LOX IMVI melanoma and in the assay on OVCAR-5 ovarian was more than 10 µM each time.

The record behind these values is PubChem BioAssay (NCI).
